Experimental data reported in article PMC3399817 (PLoS ONE, 2012).

Experiments:
Format in all cases: cell-based
[1] = test system: HCT-116 (K-RAS^G13D/+); assay: Cell viability (Syto60); details: 72 hours, HCT-116 compared to HKe-3, normalized to DMSO
Description: (§1) All colon cancer cell lines were maintained in DMEM supplemented with penicillin (100 units/mL), streptomycin (100 μg/mL), and 10% fetal bovine serum (FBS). The rectal cancer cell line (Car1) was maintained in DMEM/F12 supplemented with penicillin (100 units/mL)/streptomycin (50 μg/mL), and 5% FBS. […] The target sequences for knockdowns can be found in Table S2. In drug treatment experiments, cells were plated for 24 hours prior to exposure to drug. AZ-628 was obtained from AstraZeneca. CI-1040 was obtained from Pfizer. R406 was synthesized in the Gray laboratory. BAY61-3606 and IKK VII were purchased from EMD Biosciences. BAY derivatives were synthesized for this study.
(§2) Cell cycle analysis was performed via FACS-based propidium iodide quantification, using standard methods. To measure cell viability, cells were grown in 96-well plates in the presence or absence of drug for 72 hours, fixed with 4% paraformaldehyde, and then stained with Syto60 (Invitrogen). Plates were imaged and quantified using the LiCor Odyssey system (LiCor).

[2] = test system: phospho-Iκβα (Ser32/Ser36); assay: Bio-Plex phospho-Iκβα; details: HKe-3 cells, 1 µM
Description: (§3) The Bio-Plex assay system was used to measure signaling in drug-treated cells. Briefly, cells were incubated in the presence of drug for various amounts of time and then lysed in Bio-Rad cell lysis buffer (Bio-Rad). Protein quantification was performed using BCA assay (Pierce) and 5 µg of protein from each sample was used for Bio-Plex analysis. Phospho-signaling assays were performed using available phospho-signaling assay kits and quantified on a Bio-Plex 200 system (Bio-Rad): p-Iκβα (Ser32/Ser36), p-JNK (Thr183/Tyr185), p-MEK1 (Ser217/Ser221), p-ERK1/2 (Thr202/Tyr204, Thr185/Tyr187), p-p90RSK (Thr359/Ser363), p-p38 (Thr180/Tyr182), p-c-JUN (Ser63), p-ATF2 (Thr71), p-AKT (Ser473), p-S6 (Ser235/Ser236), p-STAT3 (Ser727), p-STAT3 (Tyr705), and p-GSK3α/β (Ser21/Ser9). Bio-Plex assay for total MEK1 was also performed as a loading control.

[3] = test system: phospho-JNK (Thr183/Tyr185); assay: Bio-Plex phospho-JNK; details: HKe-3 cells, 1 µM
Description: as §3

[4] = test system: phospho-MEK1 (Ser217/Ser221) and phospho-ERK1/2 (Thr202/Tyr204, Thr185/Tyr187); assay: Bio-Plex phospho-MEK1 and phospho-ERK1/2; details: 45 minute exposure, 1 µM, K-RAS wild-type and mutant cells
Description: as §3

[5] = test system: colorectal cancer cells expressing mutant B-RAF (V600E) (HT-29, RKO); assay: Cell viability (Syto60); details: HT-29 and RKO, 72 hours
Description: as §1, §2

[6] = test system: HT-29 (B-RAF^V600E/+); assay: Cell cycle analysis (propidium iodide FACS); details: cell lines that express mutant B-RAF (HT-29)
Description: as §2

[7] = test system: HKe-3 (K-RAS^−/+); assay: Cell viability (Syto60); details: 72 hours; for cooperation with / sensitization to AZ-628 (cell viability): K-RAS wild-type cells (HKe-3), 1 µM AZ-628
Description: as §1, §2

[8] = test system: DKs-8; assay: Cell viability (Syto60); details: DKs-8, 72 hours, 1 μM
Description: as §1, §2

[9] = test system: DLD-1 cells; assay: Cell viability (Syto60); details: DLD-1, 72 hours, 1 μM
Description: as §1, §2

Cc1ccc(NC(=O)c2cccc(C(C)(C)C#N)c2)cc1Nc1ccc2ncn(C)c(=O)c2c1 [AZ-628]
sensitivity of cells expressing mutant K-RAS (cell viability) [1]: relatively sensitive
Iκβα phosphorylation [2]: further induced
JNK activation [3]: strongly activated
MEK and ERK phosphorylation [4]: suppressed MEK and ERK phosphorylation

O=C(NOCC1CC1)c1ccc(F)c(F)c1Nc1ccc(I)cc1Cl [CI-1040]
cell viability, combination of BAY61-3606 and CI-1040 [5]: cooperated to produce an enhanced response
sensitivity of cells expressing mutant B-RAF (cell viability) ([5]; single agent): sensitive
sensitivity of cells expressing mutant K-RAS (cell viability) [1]: insensitive
cell cycle effect [6]: induced G1 arrest

O=C(c1ccc(Nc2nccc(-c3cc4ccccc4s3)n2)cc1)N1CCC(N2CCCC2)CC1 [IKK inhibitor VII]
sensitization to AZ-628 (cell viability) ([7]; HKe-3 cells with MAP4K2 knockdown, 1 µM + 1 µM AZ-628): abrogated the ability of IKK inhibitor VII to sensitize
cooperation with / sensitization to AZ-628 (cell viability) [7]: enhanced the effect of AZ-628

COc1cc(Nc2ncc(F)c(Nc3ccc4c(n3)NC(=O)C(C)(C)O4)n2)cc(OC)c1OC [R406]
sensitivity (cell viability) [8]: did not exhibit sensitivity
sensitivity (cell viability) [9]: did not exhibit sensitivity

Oc1c2ccccc2c2c3c(cccc13)N=N2 [SP600125]
cooperation with / sensitization to AZ-628 (cell viability) [7]: did not affect AZ-628 sensitivity
